Results from the supplement of paper PMC11451515.

Experiments:
Conditions in all cases: 48 h
[1] = tested on: NOMO1; test: cell viability relative to DMSO control; higher = less cytotoxic
How it was run: (§1)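 Library compounds in DMSO were pin-dosed into 1536-well plates (5 μl) holding NOMO1 or SEM (500 cells/well) or P12-Ichikawa (1000 cells/well) leukemia cells, across an 11-point threefold series of 47 μM to 0.79 nM. Each cell line had been adapted for at least four passages in each medium. CellTiter-Glo One luminescence was read after 48 h at 37°C. Viability is the per-plate percentage relative to DMSO wells, with cell-free wells as background.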

[2] = tested on: P12-Ichikawa; test: as above
How it was run: as §1

[3] = tested on: SEM cells; test: as above
How it was run: as §1

[4] = tested on: NOMO1; test: AUC of viability dose-response curve (% viability x log10 dose units); higher = less sensitive
How it was run: (§2)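 Viability of medium-adapted leukemia cells was measured by CellTiter-Glo One luminescence after 48 h at 37°C with library compounds in DMSO. Doses were 11 threefold steps from 47 μM to 0.79 nM, in 1536-well plates at 500 or 1000 cells/well. Signals were normalised per plate to DMSO and cell-free wells and fitted with a four-parameter log-logistic model on log10 dose. Area under the curve was integrated by trapezoidal rule, with curves exceeding full viability scaled and failed quality-control curves removed.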

[5] = tested on: P12-Ichikawa; test: as above
How it was run: as §2

[6] = tested on: SEM cells; test: as above
How it was run: as §2

C[C@]12CC[C@@H]3c4ccc(O)cc4C[C@@H](CCCCCCCCC[S+]([O-])CCCC(F)(F)C(F)(F)F)[C@H]3[C@@H]1CC[C@@H]2O (some centres not stated)
cell viability [%]
Conditions	[1]	[2]	[3]
HPLM + 10% dialyzed FBS, 0.000781 µM	–	112	123
HPLM + 10% dialyzed FBS, 0.00234 µM	–	119	112
HPLM + 10% dialyzed FBS, 0.00702 µM	–	115	114
HPLM + 10% dialyzed FBS, 0.0211 µM	–	116	118
HPLM + 10% dialyzed FBS, 0.0632 µM	–	112	113
HPLM + 10% dialyzed FBS, 0.19 µM	–	117	112
HPLM + 10% dialyzed FBS, 0.569 µM	–	112	125
HPLM + 10% dialyzed FBS, 1.71 µM	–	112	117
HPLM + 10% dialyzed FBS, 5.12 µM	–	116	119
HPLM + 10% dialyzed FBS, 15.4 µM	–	104	126
HPLM + 10% dialyzed FBS, 46.1 µM	–	104	109
RPMI 5 mM glucose + 10% FBS, 0.000781 µM	103	–	89.1
RPMI 5 mM glucose + 10% FBS, 0.00234 µM	118	–	84
RPMI 5 mM glucose + 10% FBS, 0.00702 µM	104	–	82.8
RPMI 5 mM glucose + 10% FBS, 0.0211 µM	131	–	93.2
RPMI 5 mM glucose + 10% FBS, 0.0632 µM	121	–	85
RPMI 5 mM glucose + 10% FBS, 0.19 µM	113	–	80.4
RPMI 5 mM glucose + 10% FBS, 0.569 µM	107	–	82.4
RPMI 5 mM glucose + 10% FBS, 1.71 µM	104	–	99.2
RPMI 5 mM glucose + 10% FBS, 5.12 µM	115	–	80.8
RPMI 5 mM glucose + 10% FBS, 15.4 µM	118	–	83.7
RPMI 5 mM glucose + 10% FBS, 46.1 µM	104	–	86.3
RPMI 5 mM glucose + 10% dialyzed FBS, 0.000781 µM	–	–	120
RPMI 5 mM glucose + 10% dialyzed FBS, 0.00234 µM	–	–	124
RPMI 5 mM glucose + 10% dialyzed FBS, 0.00702 µM	–	–	105
RPMI 5 mM glucose + 10% dialyzed FBS, 0.0211 µM	–	–	111
RPMI 5 mM glucose + 10% dialyzed FBS, 0.0632 µM	–	–	110
RPMI 5 mM glucose + 10% dialyzed FBS, 0.19 µM	–	–	112
RPMI 5 mM glucose + 10% dialyzed FBS, 0.569 µM	–	–	125
RPMI 5 mM glucose + 10% dialyzed FBS, 1.71 µM	–	–	114
RPMI 5 mM glucose + 10% dialyzed FBS, 5.12 µM	–	–	103
RPMI 5 mM glucose + 10% dialyzed FBS, 15.4 µM	–	–	102
RPMI 5 mM glucose + 10% dialyzed FBS, 46.1 µM	–	–	81.6

AUC of viability dose-response curve
Conditions	[4]	[5]	[6]
HPLM + 10% dialyzed FBS	428	464	475
RPMI 5 mM glucose + 10% FBS	470	462	411
RPMI 5 mM glucose + 10% dialyzed FBS	429	455	459

Cc1cc(C(C)(C)C)c(O)c(C)c1CC1=NCCN1
cell viability [%]
Conditions	[1]	[2]	[3]
HPLM + 10% dialyzed FBS, 0.000781 µM	90.1	96.4	62.6
HPLM + 10% dialyzed FBS, 0.00234 µM	99.5	98.3	80.2
HPLM + 10% dialyzed FBS, 0.00702 µM	103	105	75.4
HPLM + 10% dialyzed FBS, 0.0211 µM	103	98.3	83
HPLM + 10% dialyzed FBS, 0.0632 µM	101	100	76.8
HPLM + 10% dialyzed FBS, 0.19 µM	108	104	83.3
HPLM + 10% dialyzed FBS, 0.569 µM	105	110	86.9
HPLM + 10% dialyzed FBS, 1.71 µM	107	96.6	91.9
HPLM + 10% dialyzed FBS, 5.12 µM	83.8	97.5	66.6
HPLM + 10% dialyzed FBS, 15.4 µM	55	71.1	60.3
HPLM + 10% dialyzed FBS, 46.1 µM	43.4	69.5	62.5
RPMI 5 mM glucose + 10% FBS, 0.000781 µM	91.6	92.6	83.8
RPMI 5 mM glucose + 10% FBS, 0.00234 µM	97.3	98.5	82.1
RPMI 5 mM glucose + 10% FBS, 0.00702 µM	99.1	98.5	91.1
RPMI 5 mM glucose + 10% FBS, 0.0211 µM	90	106	83.6
RPMI 5 mM glucose + 10% FBS, 0.0632 µM	86.2	99.2	86.7
RPMI 5 mM glucose + 10% FBS, 0.19 µM	105	96.6	100
RPMI 5 mM glucose + 10% FBS, 0.569 µM	90.8	99.1	102
RPMI 5 mM glucose + 10% FBS, 1.71 µM	97.8	93.8	101
RPMI 5 mM glucose + 10% FBS, 5.12 µM	88.9	103	53.1
RPMI 5 mM glucose + 10% FBS, 15.4 µM	56.4	63.7	51.8
RPMI 5 mM glucose + 10% FBS, 46.1 µM	43.2	60.5	59.3
RPMI 5 mM glucose + 10% dialyzed FBS, 0.000781 µM	78	89.8	90.3
RPMI 5 mM glucose + 10% dialyzed FBS, 0.00234 µM	85.6	89	77.7
RPMI 5 mM glucose + 10% dialyzed FBS, 0.00702 µM	91.8	94.4	82.2
RPMI 5 mM glucose + 10% dialyzed FBS, 0.0211 µM	97.4	95.5	89.3
RPMI 5 mM glucose + 10% dialyzed FBS, 0.0632 µM	100	94.5	93.3
RPMI 5 mM glucose + 10% dialyzed FBS, 0.19 µM	100	104	95.4
RPMI 5 mM glucose + 10% dialyzed FBS, 0.569 µM	97	97.9	87.5
RPMI 5 mM glucose + 10% dialyzed FBS, 1.71 µM	93.2	105	105
RPMI 5 mM glucose + 10% dialyzed FBS, 5.12 µM	101	98.7	77.2
RPMI 5 mM glucose + 10% dialyzed FBS, 15.4 µM	61.2	53.8	57.9
RPMI 5 mM glucose + 10% dialyzed FBS, 46.1 µM	54.1	48.9	55.9

AUC of viability dose-response curve
Conditions	[4]	[5]	[6]
HPLM + 10% dialyzed FBS	432	454	360
RPMI 5 mM glucose + 10% FBS	419	444	392
RPMI 5 mM glucose + 10% dialyzed FBS	422	429	400
